Results: the supplement of paper PMC11451515

Tests used:
Experiment in all cases: AUC of viability dose-response curve (% viability x log10 dose units); higher = less sensitive
Details in all cases: 48 h
NOMO1 = test system: NOMO1
Outline: (§1)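 Leukemia cells adapted to each medium were seeded in 1536-well plates (500 or 1000 cells/well) and given library compounds in DMSO for 48 h at 37°C. The 11 threefold doses spanned 47 μM to 0.79 nM, and CellTiter-Glo One luminescence was normalised per plate to DMSO and cell-free wells before four-parameter log-logistic fitting on log10 dose. Area under the curve was integrated with the trapezoidal rule, scaling curves above full viability and removing curves that failed quality control.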

P12-Ichikawa = test system: P12-Ichikawa
Outline: as §1

SEM cells = test system: SEM cells
Outline: as §1

[1] = RPMI 5 mM glucose + 10% dialyzed FBS

Structure (SMILES)	AUC of viability dose-response curve (NOMO1; HPLM + 10% dialyzed FBS)	AUC of viability dose-response curve (NOMO1; RPMI 5 mM glucose + 10% FBS)	AUC of viability dose-response curve (NOMO1; [1])	AUC of viability dose-response curve (P12-Ichikawa; HPLM + 10% dialyzed FBS)	AUC of viability dose-response curve (P12-Ichikawa; RPMI 5 mM glucose + 10% FBS)	AUC of viability dose-response curve (P12-Ichikawa; [1])	AUC of viability dose-response curve (SEM cells; HPLM + 10% dialyzed FBS)	AUC of viability dose-response curve (SEM cells; RPMI 5 mM glucose + 10% FBS)	AUC of viability dose-response curve (SEM cells; [1])
COc1ccnc(C[S+]([O-])c2nc3cc(OC(F)F)ccc3[nH]2)c1OC (stereo not given)	459	464	474	474	456	461	435	431	461
CN(C)CC/C=C1/c2ccccc2COc2ccc(CC(=O)O)cc21	466	437	453	462	467	461	448	454	449
O=[N+]([O-])c1cnc(Sc2nnc(O)n2-c2ccc3c(c2)OCCO3)s1	376	353	375	390	356	337	341	342	331
Cc1cc(O)c2c(c1)C(=O)c1cc(O)cc(O)c1C2=O	462	437	454	467	468	449	457	470	469
Cc1cn(CCN2CCN(c3ccccc3-c3cc(C#N)cc(C(=O)NCCCN4CCCC4)c3)CC2)c2ccccc12	406	424	421	402	409	409	407	401	424
COc1cc2ncnc(Nc3cccc(Br)c3)c2cc1OC	475	447	460	451	462	464	447	460	448
OCCCNc1cc(-c2ccnc(Nc3cccc(Cl)c3)n2)ccn1	264	258	262	308	294	295	249	260	254
O=C(NNC(=O)c1ccc(CN[S+](=O)([O-])c2ccc(F)c(Cl)c2)cc1)c1ccccc1	468	437	438	460	466	470	463	449	423
C[N+](C)([O-])CCNc1ccc(NCC[N+](C)(C)[O-])c2c1C(=O)c1c(O)ccc(O)c1C2=O	383	365	391	354	302	305	298	272	281
COc1cc(OC)c(NC(=O)Nc2cc(C)on2)cc1Cl	464	442	417	463	465	463	467	397	453
CC(NCc1ccc2c(c1)[nH]/c(=N\C(=O)c1ccc(-c3cn[nH]c3)s1)n2CC(C)(C)O)C(C)(C)C (stereo not given)	321	358	347	350	349	345	177	194	170
C#Cc1cccc(Nc2ncnc3cc(OC)c(OCCCCCCC(=O)NO)cc23)c1	276	313	300	253	254	244	264	216	254
CC(C)(C)NC(=O)[C@@H]1CN(Cc2cccnc2)CCN1C[C@@H](O)C[C@@H](Cc1ccccc1)C(=O)N[C@H]1c2ccccc2C[C@H]1O.O=S(=O)(O)O	472	461	442	463	463	455	439	455	454
N#CC(=C(/N)Sc1ccccc1N)/C(C#N)=C(\N)Sc1ccccc1N	436	473	444	474	469	472	452	444	410
O=C1N\2CCC3=C([NH]C4=C3C=CC=C4)C2=N/C5=CC=CC=C15	465	461	466	465	457	454	461	456	451
CN1C(=O)/C=C(/NCCN(CCO)CCCC2=CC=C(C=C2)[N+]([O-])=O)N(C)C1=O	463	473	443	447	443	441	463	450	454
CC(C)c1ccccc1Cc1cc(C(=O)Nc2ccc([S+](=O)([O-])c3ccccc3C(C)(C)C)cc2)c(O)c(O)c1O	408	467	464	451	460	457	449	426	422
O=c1[nH]cnc2c1ncn2[C@H]1CC[C@@H](CO)O1	447	420	431	468	463	444	460	409	409
C#C[C@]1(O)CC[C@H]2[C@@H]3CCc4cc(OC)ccc4[C@H]3CC[C@@]21C	453	457	457	433	468	471	444	470	471
O=C1NC(=O)/C(=C/c2cccc(C(F)(F)F)c2)S1	448	458	463	471	466	453	463	463	467
